Test results as given in US9089565B2, “Compositions and methods for causing neurite outgrowth” (MEDICAL RESEARCH COUNCIL, priority 2009, dated 2015).

B1: BDNF: brain-derived neurotrophic factor, member of the neurotrophin nerve growth factor family, purchased from Merck (protein, UniProt P23560 19-247, looked up)
Neurotrophic factor BDNF …: APMKEANIRGQGGLAYPGVRTHGTLESVNGPKAGSRGLTSLADTFEHVIEELLDEDQKVRPNEENNKDADLYTSRVMLSSQVPLEPPLLFLLEEYKNYLDAANMSMRVRRHSDPARRGELSVCDSISEWVTAADKKTAVDMSGGTVTVLEKVPVSKGQLKQYFYETKCNPMGYTKEGCRGIDKRHWNSQCRTTQSYVRALTMDSKKRIGWRFIRIDTSCVCTLTIKRGR

Tested on: RA-treated SH-SY5Y cells
Assay: Neurite outgrowth of RA-treated SH-SY5Y cells
Type: cell-based, human
Protocol: FIG. 1. BDNF promotes neurite outgrowth of RA-treated SH-SY5Y, and induces phosphorylation of NgR1. (A) SH-SY5Y cells were incubated with indicated reagents. Cell images were taken with phase contrast microscopy. (B) Number of cells extending neurite-like structures of more than 40 μm and total cell number were counted from images taken in (A). More than 300 cells were examined in each sample. The proportion of cells extending neurite-like structures of more than 40 μm was indicated as a percentage of total cell number. An average of three experiments is shown. Error bars indicate S. E. between experiments. Data were analysed with student's t test. (C) Whole cell extracts were prepared from RA-treated SH-SY5Y cells after incubation with or without BDNF for 24 hours, and were analysed by SDS-PAGE. Immunoblotting was performed with the indicated antibodies. (D) Whole cell extract prepared from cells treated with both RA and BDNF was incubated with the indicated reagents for 1 hour at 37° C. Immunoblotting was performed with anti-NgR1 antibody. (E) RA-treated SH-SY5Y cells were incubated with BDNF in the presence or absence of one of the following: PKC inhibitor—500 nM Gö6983 or Gö6976; PKA inhibitor—2 μM KT5720 or a PKA inhibitor peptide 14-22; or either 500 nM or 1 μM of a casein kinase inhibitor, for 24 hours. Whole cell extracts prepared from these cells were analysed by SDS-PAGE. Immunoblotting was performed with anti-NgR1 antibody.
FIG. 2. CK2 promotes neurite outgrowth of RA-treated SH-SY5Y cells without BDNF. (A) RA-treated SH-SY5Y cells were incubated with the indicated reagents for 24 hours. Cell images were taken with phase contrast microscopy. (B) Number of cells extending neurite-like structures of more than 40 μm and total cell number were counted from images taken in (A). More than 300 cells were examined in each sample. Calculation was done as FIG. 1B. Result of student's t test between RA alone and RA+CK II+ATP was p=0.0014. (C) Myc-tagged wild type and mutant versions of NgR1 were over-expressed in SH-SY5Y cells. The cells were treated with RA, CK2 and ATP. Over-expressed NgR1-Myc was detected with anti-Myc antibody. (D) SH-SY5Y cells over-expressing 281S/A mutant NgR1-Myc were incubated with RA and NEP1-40. (E) SH-SY5Y cells over-expressing 281S/D mutant NgR1-Myc were treated as (C).
After fixation, beta-tubulin III was detected with anti-beta-tubulin III antibody. B, Wild type or 281S/A mutant NgR1-Myc was over-expressed in SH-SY5Y cells. After 5 days treatment with RA, these cells were incubated with 500 U/ml PKA and 500 nM (74 kBq/ml) ATP. Then, NgR1-Myc was immuno-precipitated and analysed with SDS-PAGE. […] NgR1-Myc was detected with anti-Myc antibody. […]

[1] = RA-treated SH-SY5Y, substance alone, 24 hours

Molecule | neurite outgrowth [1] | neurite outgrowth (cells over-expressing 281S/A mutant NgR1, NEP1-40 for 24 hours)
Nc1ncnc2c1ncn2[C@@H]1O[C@H](COP(=O)(O)OP(=O)(O)OP(=O)(O)O)[C@@H](O)[C@H]1O [ATP] | Neither addition of ATP alone nor CK2 alone to the culture medium induced neurite outgrowth | 
NEP1-40: a competitive inhibitor of Nogo-66 binding to NgR1 (MEDLDQSPLVSSSDSPPRPQPAFKYQFVREPEDEEEEEEE; Nogo-66 residues 1-40; UniProt Q9NQC3 1-40, looked up, fragment) [reference compound] | promoted neurite outgrowth | showed neurite outgrowth
B1 | efficient neurite outgrowth | 
